Measurements taken from ChEMBL document CHEMBL1671854, “ramR mutations involved in efflux-mediated multidrug resistance in Salmonella enterica serovar Typhimurium” (2008).
Converted amounts (≈) assume the structure as drawn.

How the values were obtained:
Type in all cases: functional, Salmonella enterica subsp. enterica serovar Typhimurium
Salmonella typhimurium [1] = experiment: Antimicrobial activity against Salmonella enterica serovar Typhimurium BN18 by agar doubling dilution method
Salmonella typhimurium [2] = experiment: Antimicrobial activity against marR::kan-deficient Salmonella enterica serovar Typhimurium S/921495 by agar doubling dilution method
Salmonella typhimurium [3] = experiment: Antimicrobial activity against ramR-deficient Salmonella enterica serovar Typhimurium S/921495 by agar doubling dilution method
Salmonella typhimurium [4] = experiment: Antimicrobial activity against ramA::kan-deficient Salmonella enterica serovar Typhimurium 543SA98 harboring GyrA S83Y mutant gene by agar doubling dilution method
Salmonella typhimurium [5] = experiment: Antimicrobial activity against Salmonella enterica serovar Typhimurium S/921495 by agar doubling dilution method
Salmonella typhimurium [6] = experiment: Antimicrobial activity against Salmonella enterica serovar Typhimurium BN18/41 harboring GyrA G81C,acrR mutant genes by agar doubling dilution method
Salmonella typhimurium [7] = experiment: Antimicrobial activity against multidrug-resistant Salmonella enterica serovar Typhimurium 102SA00 harboring GyrA S83A and D87N, GyrB S464F and ParC S80I mutant genes by agar doubling dilution method
Salmonella typhimurium [8] = experiment: Antimicrobial activity against ramA::kan-deficient Salmonella enterica serovar Typhimurium 102SA00 harboring GyrA S83A and D87N, GyrB S464F and ParC S80I mutant genes by agar doubling dilution method
Salmonella typhimurium [9] = experiment: Antimicrobial activity against Salmonella enterica serovar Typhimurium BN18/71 harboring plasmid encoded RamR gene, GyrA G81C,acrR mutant genes by agar doubling dilution method
Salmonella typhimurium [10] = experiment: Antimicrobial activity against soxR::kan-deficient Salmonella enterica serovar Typhimurium S/921495 by agar doubling dilution method
Salmonella typhimurium [11] = experiment: Antimicrobial activity against ramA::kan-deficient Salmonella enterica serovar Typhimurium 902SA92 harboring GyrA S83A and D87N, GyrB S464F and ParC S80I mutant genes by agar doubling dilution method
Salmonella typhimurium [12] = experiment: Antimicrobial activity against multidrug-resistant Salmonella enterica serovar Typhimurium 902SA92 harboring plasmid encoded RamR gene, GyrA S83A and D87N, GyrB S464F and ParC S80I mutant genes by agar doubling dilution method
Salmonella typhimurium [13] = experiment: Antimicrobial activity against multidrug-resistant Salmonella enterica serovar Typhimurium BN9945 harboring plasmid encoded RamR gene by agar doubling dilution method
Salmonella typhimurium [14] = experiment: Antimicrobial activity against ramA::kan-deficient Salmonella enterica serovar Typhimurium BN9181 by agar doubling dilution method
Salmonella typhimurium [15] = experiment: Antimicrobial activity against soxS::kan-deficient Salmonella enterica serovar Typhimurium S/921495 by agar doubling dilution method
Salmonella typhimurium [16] = experiment: Antimicrobial activity against ramA::kan-deficient Salmonella enterica serovar Typhimurium BN18/41 harboring plasmid encoded RamR gene, GyrA G81C,acrR mutant genes by agar doubling dilution method
Salmonella typhimurium [17] = experiment: Antimicrobial activity against ramA::kan-deficient Salmonella enterica serovar Typhimurium S/921495 by agar doubling dilution method
Salmonella typhimurium [18] = experiment: Antimicrobial activity against multidrug-resistant Salmonella enterica serovar Typhimurium 902SA92 harboring GyrA S83A and D87N, GyrB S464F and ParC S80I mutant genes by agar doubling dilution method
Salmonella typhimurium [19] = experiment: Antimicrobial activity against multidrug-resistant Salmonella enterica serovar Typhimurium BN9181 harboring plasmid encoded RamR gene by agar doubling dilution method
Salmonella typhimurium [20] = experiment: Antimicrobial activity against multidrug-resistant Salmonella enterica serovar Typhimurium BN9945 by agar doubling dilution method
Salmonella typhimurium [21] = experiment: Antimicrobial activity against marR-deficient Salmonella enterica serovar Typhimurium S/921495 by agar doubling dilution method
Salmonella typhimurium [22] = experiment: Antimicrobial activity against Salmonella enterica serovar Typhimurium BN18/71 harboring GyrA G81C, acrR mutant genes by agar doubling dilution method
Salmonella typhimurium [23] = experiment: Antimicrobial activity against multidrug-resistant Salmonella enterica serovar Typhimurium BN10055 harboring GyrA S83Y mutant gene by agar doubling dilution method
Salmonella typhimurium [24] = experiment: Antimicrobial activity against Salmonella enterica serovar Typhimurium BN18 harboring plasmid encoded RamR gene by agar doubling dilution method
Salmonella typhimurium [25] = experiment: Antimicrobial activity against ramR::kan-deficient Salmonella enterica serovar Typhimurium S/921495 by agar doubling dilution method
Salmonella typhimurium [26] = experiment: Antimicrobial activity against multidrug-resistant Salmonella enterica serovar Typhimurium 102SA00 harboring plasmid encoded RamR gene, GyrA S83A and D87N, GyrB S464F and ParC S80I mutant genes by agar doubling dilution method
Salmonella typhimurium [27] = experiment: Antimicrobial activity against multidrug-resistant Salmonella enterica serovar Typhimurium 543SA98 harboring GyrA […] mutant gene by agar doubling dilution method
Salmonella typhimurium [28] = experiment: Antimicrobial activity against ramA::kan-deficient Salmonella enterica serovar Typhimurium BN10055 harboring GyrA S83Y mutant gene by agar doubling dilution method
Salmonella typhimurium [29] = experiment: Antimicrobial activity against ramA::kan-deficient Salmonella enterica serovar Typhimurium BN18/71 harboring plasmid encoded RamR gene, GyrA G81C,acrR mutant genes by agar doubling dilution method
Salmonella typhimurium [30] = experiment: Antimicrobial activity against marA::kan-deficient Salmonella enterica serovar Typhimurium S/921495 by agar doubling dilution method
Salmonella typhimurium [31] = experiment: Antimicrobial activity against multidrug-resistant Salmonella enterica serovar Typhimurium BN10055 harboring plasmid encoded RamR gene, GyrA S83Y mutant gene by agar doubling dilution method
Salmonella typhimurium [32] = experiment: Antimicrobial activity against Salmonella enterica serovar Typhimurium BN18/41 harboring plasmid encoded RamR gene, GyrA G81C,acrR mutant genes by agar doubling dilution method
Salmonella typhimurium [33] = experiment: Antimicrobial activity against ramA::kan-deficient Salmonella enterica serovar Typhimurium BN18 by agar doubling dilution method
Salmonella typhimurium [34] = experiment: Antimicrobial activity against ramR-deficient Salmonella enterica serovar Typhimurium S/921495 harboring plasmid encoded RamR gene by agar doubling dilution method
Salmonella typhimurium [35] = experiment: Antimicrobial activity against Salmonella enterica serovar Typhimurium BN18/21 harboring plasmid encoded RamR gene by agar doubling dilution method
Salmonella typhimurium [36] = experiment: Antimicrobial activity against multidrug-resistant Salmonella enterica serovar Typhimurium BN9181 by agar doubling dilution method
Salmonella typhimurium [37] = experiment: Antimicrobial activity against multidrug-resistant Salmonella enterica serovar Typhimurium 543SA98 harboring plasmid encoded RamR gene, GyrA S83Y mutant gene by agar doubling dilution method
Salmonella typhimurium [38] = experiment: Antimicrobial activity against Salmonella enterica serovar Typhimurium BN18/21 by agar doubling dilution method
Salmonella typhimurium [39] = experiment: Antimicrobial activity against ramA::kan-deficient Salmonella enterica serovar Typhimurium BN18/21 by agar doubling dilution method
Salmonella typhimurium [40] = experiment: Antimicrobial activity against ramA::kan-deficient Salmonella enterica serovar Typhimurium BN9945 by agar doubling dilution method
Salmonella typhimurium [41] = experiment: Antimicrobial activity against Salmonella enterica serovar Typhimurium S/921495 harboring plasmid encoded RamR gene by agar doubling dilution method

SMILES: O=C(N[C@H](CO)[C@H](O)c1ccc([N+](=O)[O-])cc1)C(Cl)Cl [CHLORAMPHENICOL]
- MIC (Salmonella typhimurium [1]): 4 µg/mL (≈ 12.4 µM)
- MIC (Salmonella typhimurium [2]): 4 µg/mL (≈ 12.4 µM)
- MIC (Salmonella typhimurium [3]): 16 µg/mL (≈ 49.5 µM)
- MIC (Salmonella typhimurium [4]): 128 µg/mL (≈ 396 µM)
- MIC (Salmonella typhimurium [5]): 4 µg/mL (≈ 12.4 µM)
- MIC (Salmonella typhimurium [6]): 32 µg/mL (≈ 99 µM)
- MIC (Salmonella typhimurium [7]): 512 µg/mL (≈ 1580 µM)
- MIC (Salmonella typhimurium [8]): 256 µg/mL (≈ 792 µM)
- MIC (Salmonella typhimurium [9]): 16 µg/mL (≈ 49.5 µM)
- MIC (Salmonella typhimurium [10]): 4 µg/mL (≈ 12.4 µM)
- MIC (Salmonella typhimurium [11]): 256 µg/mL (≈ 792 µM)
- MIC (Salmonella typhimurium [12]): 256 µg/mL (≈ 792 µM)
- MIC (Salmonella typhimurium [13]): 128 µg/mL (≈ 396 µM)
- MIC (Salmonella typhimurium [14]): 128 µg/mL (≈ 396 µM)
- MIC (Salmonella typhimurium [15]): 4 µg/mL (≈ 12.4 µM)
- MIC (Salmonella typhimurium [16]): 16 µg/mL (≈ 49.5 µM)
- MIC (Salmonella typhimurium [17]): 4 µg/mL (≈ 12.4 µM)
- MIC (Salmonella typhimurium [18]): 1020 µg/mL (≈ 3170 µM)
- MIC (Salmonella typhimurium [19]): 128 µg/mL (≈ 396 µM)
- MIC (Salmonella typhimurium [20]): 512 µg/mL (≈ 1580 µM)
- MIC (Salmonella typhimurium [21]): 4 µg/mL (≈ 12.4 µM)
- MIC (Salmonella typhimurium [22]): 64 µg/mL (≈ 198 µM)
- MIC (Salmonella typhimurium [23]): 1020 µg/mL (≈ 3170 µM)
- MIC (Salmonella typhimurium [24]): 4 µg/mL (≈ 12.4 µM)
- MIC (Salmonella typhimurium [25]): 16 µg/mL (≈ 49.5 µM)
- MIC (Salmonella typhimurium [26]): 256 µg/mL (≈ 792 µM)
- MIC (Salmonella typhimurium [27]): 512 µg/mL (≈ 1580 µM)
- MIC (Salmonella typhimurium [28]): 128 µg/mL (≈ 396 µM)
- MIC (Salmonella typhimurium [29]): 16 µg/mL (≈ 49.5 µM)
- MIC (Salmonella typhimurium [30]): 4 µg/mL (≈ 12.4 µM)
- MIC (Salmonella typhimurium [31]): 1020 µg/mL (≈ 3170 µM)
- MIC (Salmonella typhimurium [32]): 16 µg/mL (≈ 49.5 µM)
- MIC (Salmonella typhimurium [33]): 4 µg/mL (≈ 12.4 µM)
- MIC (Salmonella typhimurium [34]): 4 µg/mL (≈ 12.4 µM)
- MIC (Salmonella typhimurium [35]): 4 µg/mL (≈ 12.4 µM)
- MIC (Salmonella typhimurium [36]): 128 µg/mL (≈ 396 µM)
- MIC (Salmonella typhimurium [37]): 128 µg/mL (≈ 396 µM)
- MIC (Salmonella typhimurium [38]): 16 µg/mL (≈ 49.5 µM)
- MIC (Salmonella typhimurium [39]): 4 µg/mL (≈ 12.4 µM)
- MIC (Salmonella typhimurium [40]): 128 µg/mL (≈ 396 µM)
- MIC (Salmonella typhimurium [41]): 4 µg/mL (≈ 12.4 µM)

SMILES: O=C(O)c1cn(C2CC2)c2cc(N3CCNCC3)c(F)cc2c1=O [CIPROFLOXACIN]
- MIC (Salmonella typhimurium [1]): 0.015 µg/mL (≈ 0.0453 µM)
- MIC (Salmonella typhimurium [2]): 0.015 µg/mL (≈ 0.0453 µM)
- MIC (Salmonella typhimurium [3]): 0.06 µg/mL (≈ 0.181 µM)
- MIC (Salmonella typhimurium [4]): 0.125 µg/mL (≈ 0.377 µM)
- MIC (Salmonella typhimurium [5]): 0.015 µg/mL (≈ 0.0453 µM)
- MIC (Salmonella typhimurium [6]): 2 µg/mL (≈ 6.04 µM)
- MIC (Salmonella typhimurium [7]): 32 µg/mL (≈ 96.6 µM)
- MIC (Salmonella typhimurium [8]): 8 µg/mL (≈ 24.1 µM)
- MIC (Salmonella typhimurium [9]): 2 µg/mL (≈ 6.04 µM)
- MIC (Salmonella typhimurium [10]): 0.015 µg/mL (≈ 0.0453 µM)
- MIC (Salmonella typhimurium [11]): 8 µg/mL (≈ 24.1 µM)
- MIC (Salmonella typhimurium [12]): 8 µg/mL (≈ 24.1 µM)
- MIC (Salmonella typhimurium [13]): 0.125 µg/mL (≈ 0.377 µM)
- MIC (Salmonella typhimurium [14]): 0.0075 µg/mL (≈ 0.0226 µM)
- MIC (Salmonella typhimurium [15]): 0.015 µg/mL (≈ 0.0453 µM)
- MIC (Salmonella typhimurium [16]): 0.5 µg/mL (≈ 1.51 µM)
- MIC (Salmonella typhimurium [17]): 0.015 µg/mL (≈ 0.0453 µM)
- MIC (Salmonella typhimurium [18]): 32 µg/mL (≈ 96.6 µM)
- MIC (Salmonella typhimurium [19]): 0.015 µg/mL (≈ 0.0453 µM)
- MIC (Salmonella typhimurium [20]): 0.5 µg/mL (≈ 1.51 µM)
- MIC (Salmonella typhimurium [21]): 0.015 µg/mL (≈ 0.0453 µM)
- MIC (Salmonella typhimurium [22]): 8 µg/mL (≈ 24.1 µM)
- MIC (Salmonella typhimurium [23]): 1 µg/mL (≈ 3.02 µM)
- MIC (Salmonella typhimurium [24]): 0.015 µg/mL (≈ 0.0453 µM)
- MIC (Salmonella typhimurium [25]): 0.06 µg/mL (≈ 0.181 µM)
- MIC (Salmonella typhimurium [26]): 8 µg/mL (≈ 24.1 µM)
- MIC (Salmonella typhimurium [27]): 0.5 µg/mL (≈ 1.51 µM)
- MIC (Salmonella typhimurium [28]): 0.25 µg/mL (≈ 0.754 µM)
- MIC (Salmonella typhimurium [29]): 2 µg/mL (≈ 6.04 µM)
- MIC (Salmonella typhimurium [30]): 0.015 µg/mL (≈ 0.0453 µM)
- MIC (Salmonella typhimurium [31]): 1 µg/mL (≈ 3.02 µM)
- MIC (Salmonella typhimurium [32]): 0.5 µg/mL (≈ 1.51 µM)
- MIC (Salmonella typhimurium [33]): 0.015 µg/mL (≈ 0.0453 µM)
- MIC (Salmonella typhimurium [34]): 0.015 µg/mL (≈ 0.0453 µM)
- MIC (Salmonella typhimurium [35]): 0.06 µg/mL (≈ 0.181 µM)
- MIC (Salmonella typhimurium [36]): 0.015 µg/mL (≈ 0.0453 µM)
- MIC (Salmonella typhimurium [37]): 0.125 µg/mL (≈ 0.377 µM)
- MIC (Salmonella typhimurium [38]): 0.125 µg/mL (≈ 0.377 µM)
- MIC (Salmonella typhimurium [39]): 0.06 µg/mL (≈ 0.181 µM)
- MIC (Salmonella typhimurium [40]): 0.125 µg/mL (≈ 0.377 µM)
- MIC (Salmonella typhimurium [41]): 0.015 µg/mL (≈ 0.0453 µM)
